Measurements: patent publication US20060153888A1, “Methods for scavenging oxidizing nitrogen and oxygen species with fragrances having antioxidative properties” (Access Business Group International LLC, priority 2004, published 2006)

Tests used:
[1] = DPPH Spectrophotometer Assay (free radical scavenging); type: biochemical; conditions: for DPPH EC50: Table 5; for antioxidant properties in words: comment on DPPH and NORA results of Table 5; for antioxidant capacity in words: in both DPPH and nitric oxide free radical systems, Table 3
From the text: The free radical 2,2-Diphenyl-1-picrylhydrazyl (DPPH) may be used to determine free radical scavenging ability of test materials such as a scavenging agent of the present invention. […] Measurements are taken after the reaction between the test scavenging agent and DPPH reaches steady state. DPPH is a free radical that changes color when it reacts with an antioxidant. The color change in DPPH is an indication of antioxidant power. […] Thus, DPPH serves as a model for free radical oxidation. Provided below are details for conducting a DPPH Spectrophotometer Assay:
Weigh 100 mg sample into 15 ml conical centrifuge tube.
Add 1 ml DMSO. Vortex to mix.
Dilute samples in MeOH according to Table 2.
Dilute 1 mM DPPH (prepared in 80% MeOH) to 100 uM in 80% MeOH.
In 3 ml cuvette, add 200 uL sample dilution. Add 1.8 ml of 100 uM DPPH.
Mix well. Incubate 15 min at Room Temp. Read at […].
If cuvette appears cloudy due to precipitation of sample, prepare sample dilutions (Table 2) in DMF (or suitable solvent) instead of DMSO. Also prepare DPPH working solution (100 uM) in DMF (or suitable solvent) instead of MeOH.

[2] = Nitric Oxide Radical Absorbance (NORA) assay; type: biochemical; conditions: for inhibitory response for nitric oxide in words: comment on Table 3
Method: The NORA assay determines the ability of a compound to quench nitric oxide free radicals (NO*) produced by a NO* generator. In the assay, a target compound is oxidized using the nitric oxide generator NOR-3, resulting in increased fluorescence. […] Provided below are details for conducting a Nitric Oxide Radical Absorbance (NORA) Assay:
DHR123: 1.0 mg/3 ml MeOH=1 mM stock (Freeze and protect from light) 7.5 uL stock/10 ml Buffer=0.75 uM working solution.
NOR-3: 1.0 mg NOR-3/100 uL DMSO.
Oil: Weigh 100 mg into 15 ml polypropylene centrifuge tube. Add 5 ml
Prepare sample dilution in a 96-well polypropylene storage plate (2 mL/well), the dilution plate: • A. 60 uL Stock+1.94 ml DMF=200 ug/ml • B. 500 uL 200 ug/ml+500 ul DMF=100 ug/ml • C.
Positive Control: (1 uM Uric Acid)
Add 100 uL of each sample/PC/Blank in duplicate. Row H will contain PC only.
Add 70 uL Phosphate Buffer to all wells.
Add 30 uL NOR-3 to all wells.
Incubate plate 15 min at room temperature.

[3] = amount of test material required to inhibit nitric oxide oxidation by 50%, Table 3
[4] = Antioxidant Power equals 1/EC50, fragrant oils, Table 1

DPPH EC50 [1]	NORA EC50 ([2]; Table 5)	NORA EC50 [2, 3]	Compound	other results
>2.82 g/g DPPH	>10.0 µg/mL	–	OCCCc1ccccc1 [3-Phenyl-1-propanol]	–
0.15 g/g DPPH	>10.0 µg/mL	–	Cc1cc(C(C)(C)C)c(O)c(C(C)(C)C)c1 [BHT, butylated hydroxytoluene]	–
>2.82 g/g DPPH	>10.0 µg/mL	–	CC12CCC(CC1=O)C2(C)C (stereo not drawn) [Camphor]	–
>2.82 g/g DPPH	11.8 µg/mL	–	OCC=Cc1ccccc1 [Cinnamyl alcohol]	–
>2.82 g/g DPPH	>10.0 µg/mL	–	O=c1ccc2ccccc2o1 [Coumarin]	–
>2.82 g/g DPPH	>10.0 µg/mL	–	CCOC(=O)c1ccc(O)cc1 [Ethyl paraben]	–
0.19 g/g DPPH	0.3 µg/mL	–	COc1cc(/C=C/C(=O)O)ccc1O [Ferulic acid]	antioxidant properties in words [1]: excellent antioxidant properties
–	–	150.33 µg/mL	CC(C)CC1CC(C)(O)CCO1 (stereo not drawn) [Florosa (Q), Florosa]	–
–	–	150.44 µg/mL	CCCCCC1COCCC1OC(C)=O (stereo not drawn) [Jasmopyrane (Q), Jasmopyrane]	inhibitory response for nitric oxide in words [2]: performed more poorly than did lilial
–	–	23.70 µg/mL	CC(C=O)Cc1ccc(C(C)(C)C)cc1 (stereo not drawn) [Lilial (G), Lilial]	inhibitory response for nitric oxide in words [2]: better than expected inhibitory response
>2.82 g/g DPPH	>10.0 µg/mL	–	C=C(C)[C@H]1CC=C(C)CC1 [Limonene]	–
2.82 g/g DPPH	10.0 µg/mL	–	Cc1occc(=O)c1O [Maltol]	antioxidant properties in words [1]: performed marginally well
>2.82 g/g DPPH	>10.0 µg/mL	–	CC1CCC(C(C)C)C(O)C1 (stereo not drawn) [Menthol]	–
–	–	274.16 µg/mL	Cc1ccc(C(C)C)cc1 [Paracymene]	–
–	–	10.14 µg/mL	CC(=O)CCc1ccc(O)cc1 [Raspberry Ketone]	antioxidant capacity in words [1]: greatest antioxidant capacity
0.74 g/g DPPH	>10.0 µg/mL	–	Oc1cccc(O)c1 [Resorcinol]	antioxidant properties in words [1]: good responses
0.65 g/g DPPH	>10.0 µg/mL	–	Cc1ccc(C(C)C)c(O)c1 [Thymol]	antioxidant properties in words [1]: good responses
–	–	0.046 µg/mL	Cc1c(C)c2c(c(C)c1O)CCC(C)(C(=O)O)O2 (stereo not drawn) [Trolox, reference compound]	–
–	–	0.84 µg/mL	O=c1[nH]c(=O)c2[nH]c(=O)[nH]c2[nH]1 [Uric Acid, reference compound]	–
–	–	8.95 µg/mL	COc1cc(C=O)ccc1O [Vanillin]	DPPH *AO Power [1, 4]: 0.0112 units/gram; antioxidant capacity in words [1]: greatest antioxidant capacity; NORA AO Power [2, 4]: 93 units/gram
0.16 g/g DPPH	4.1 µg/mL	–	COc1cc(CO)ccc1O [Vanillyl alcohol]	antioxidant properties in words [1]: excellent antioxidant properties

Compound	DPPH EC50 [1]	NORA EC50 ([2]; Table 5)	NORA EC50 [2, 3]	other results
OCCOc1ccccc1 [2-Phenoxyethanol]	>2.82 g/g DPPH	>10.0 µg/mL	–	–
CCCCCCCCC(=O)OCC [Ethyl monanoate]	>2.82 g/g DPPH	>10.0 µg/mL	–	–
C=CCc1ccc(O)c(OC)c1 [Eugenol]	0.12 g/g DPPH	0.8 µg/mL	–	antioxidant properties in words [1]: excellent antioxidant properties
COc1cccc(CO)c1 [m-Anisyl alcohol]	>2.82 g/g DPPH	>10.0 µg/mL	–	–
